Source: patent US4874856A, “3-(substituted)propenyl-7-(aminothiazolylacetamido) ceph-3-em-4-carboxylic acids and esters thereof” (Bristol-Myers Company, priority 1987, dated 1989)
≈ marks a conversion by molar mass, not a printed value. Read-outs that look alike come from different tables or passages of the source.

Columns and labels:
Format in all cases: cell-based
Serratia species = assay: In vitro MIC, Mueller-Hinton agar, inoculum 10^6 cells/ml
Source text: (§1) Table 6 is a comparison of the in vitro antibacterial activities of Compound 29 and the vinyl homolog thereof FK-482 against clinically important pathogens. Thirty-seven organisms were more than 4-fold more susceptible to Compound 29 than to FK-482. FK-482 has the following formula and is described by Takaya, et al. in U.S. Pat. No. 4,559,334 patented Dec. 17, 1985 (filed Oct. 20, 1983). [drawing 14]
(§2) *; Geometric mean of MIC (μg/ml)
(§3) Mueller-Hinton agar Inoculum size; 10^6 cells/ml

Proteus vulgaris = assay: as above
Source text: as §1, §2, §3

Serratia marcescens = assay: as above
Source text: as §1, §2, §3

Proteus mirabilis = assay: as above
Source text: as §1, §2, §3

Providencia rettgeri = assay: as above
Source text: as §1, §2, §3

[1] = test system: CETresistant E. coli (3) and K. pneumoniae (2); assay: In vitro MIC, two-fold serial agar dilution in Mueller-Hinton agar, GnIb strains; settings: Escherichia coli, 5 strains, read-out: Geometric mean of MIC, GnIb
Protocol: (§4) The in vitro antibacterial activity of the parent cephalosporanic acids of Formula I wherein R^4 is hydrogen is shown in Table 1 in terms of geometric mean of the Minimum Inhibitory Concentrations (MIC's) which were determined by the two-fold serial agar dilution method in Mueller-Hinton agar against 25 strains of test organisms in five groups.
GnIb: CETresistant E. coli (3) and K. pneumoniae (2)

[2] = test system: Cephalothin(CET)sensitive E. coli (2 strains), K. pneumoniae (1) an P. mirabilis (2); assay: In vitro MIC, two-fold serial agar dilution in Mueller-Hinton agar, GnIa strains; settings: 5 strains, read-out: Geometric mean of MIC, GnIa
Protocol: as §4
GnIa: Cephalothin(CET)sensitive E. coli (2 strains), K. pneumoniae (1) an […]

[3] = test system: M. morcanii (1), E. cloacae (2) and S. marcescens (2); assay: In vitro MIC, two-fold serial agar dilution in Mueller-Hinton agar, GnII strains; settings: Enterobacter cloacae, read-out: Geometric mean of MIC, GnII
Protocol: as §4
GnII: M. morcanii (1), E. cloacae (2) and S. marcescens (2)

C/C=C\C1=C(C(=O)O)N2C(=O)[C@@H](NC(=O)/C(=N\O)c3csc(N)n3)[C@H]2SC1 [Compound 29, 7β-[(Z)-2-(2-aminothiazol-4-yl)-2-(hydroxyimino)acetamido]-3-[(Z)-prop-1-en-1-yl]-3-cephem-4-carboxylic acid]
MIC (Serratia species; strain 6-427, read-out: MIC): 3.1 µg/mL (≈ 7.57 µM) | MIC (Serratia species; strain 6-920, read-out: MIC): > 50 µg/mL | MIC (Serratia species; strain 7-255, read-out: MIC): > 50 µg/mL | MIC (Serratia species; strain 7-454, read-out: MIC): > 50 µg/mL | MIC (Serratia species; strain 7-2322, read-out: MIC): > 50 µg/mL | MIC (Serratia species; strain 8-185, read-out: MIC): > 50 µg/mL | MIC (Serratia species; strain 8-513, read-out: MIC): 25 µg/mL (≈ 61.1 µM) | MIC (Serratia species; strain 8-785, read-out: MIC): > 50 µg/mL | MIC (Serratia species; strain 8-1537, read-out: MIC): 25 µg/mL (≈ 61.1 µM) | MIC (Serratia species; strain 9-50, read-out: MIC): > 50 µg/mL | MIC (Serratia species; strain 9-690, read-out: MIC): > 50 µg/mL | MIC (Proteus vulgaris; (GM) of the Proteus vulgaris strains, read-out: Geometric mean of MIC): 1 µg/mL (≈ 2.44 µM) | MIC (Proteus vulgaris; strain A 9436, read-out: MIC): 0.1 µg/mL (≈ 0.244 µM) | MIC (Proteus vulgaris; strain A 9526, read-out: MIC): 3.1 µg/mL (≈ 7.57 µM) | MIC (Proteus vulgaris; strain A 9699, read-out: MIC): 1.6 µg/mL (≈ 3.91 µM) | MIC (Proteus vulgaris; strain AKH-26, read-out: MIC): > 50 µg/mL | MIC (Proteus vulgaris; strain HX-19 MS-1, read-out: MIC): 0.1 µg/mL (≈ 0.244 µM) | MIC (Proteus vulgaris; strain OX-19 MS-1, read-out: MIC): 0.2 µg/mL (≈ 0.488 µM) | MIC (Serratia marcescens; (GM) of the Serratia marcescens strains, read-out: Geometric mean of MIC): 13 µg/mL (≈ 31.7 µM) | MIC (Serratia marcescens; strain A20019, read-out: MIC): 1.6 µg/mL (≈ 3.91 µM) | MIC (Serratia marcescens; strain A20222, read-out: MIC): 3.1 µg/mL (≈ 7.57 µM) | MIC (Serratia marcescens; strain A20333, read-out: MIC): > 50 µg/mL | MIC (Serratia marcescens; strain A20334, read-out: MIC): > 50 µg/mL | MIC (Serratia marcescens; strain A20335, read-out: MIC): 1.6 µg/mL (≈ 3.91 µM) | MIC (Serratia marcescens; strain A20336, read-out: MIC): 3.1 µg/mL (≈ 7.57 µM) | MIC (Serratia marcescens; strain A20442, read-out: MIC): 3.1 µg/mL (≈ 7.57 µM) | MIC (Serratia marcescens; strain A20459, read-out: MIC): > 50 µg/mL | MIC (Serratia marcescens; strain A20460, read-out: MIC): 12.5 µg/mL (≈ 30.5 µM) | MIC (Serratia marcescens; strain A20461, read-out: MIC): > 50 µg/mL | MIC (Proteus mirabilis; (GM) of the Proteus mirabilis strains, read-out: Geometric mean of MIC): 0.084 µg/mL (≈ 0.205 µM) | MIC (Proteus mirabilis; IFO3849, strain IFO 3849 MS-1, read-out: MIC): 0.1 µg/mL (≈ 0.244 µM) | MIC (Proteus mirabilis; strain A 9554, read-out: MIC): 0.1 µg/mL (≈ 0.244 µM) | MIC (Proteus mirabilis; strain A 9702, read-out: MIC): 0.05 µg/mL (≈ 0.122 µM) | MIC (Proteus mirabilis; strain A 9716, read-out: MIC): 0.1 µg/mL (≈ 0.244 µM) | MIC (Proteus mirabilis; strain A20119, read-out: MIC): 0.05 µg/mL (≈ 0.122 µM) | MIC (Proteus mirabilis; strain A20342, read-out: MIC): 0.1 µg/mL (≈ 0.244 µM) | MIC (Proteus mirabilis; strain A20454, read-out: MIC): 0.1 µg/mL (≈ 0.244 µM) | MIC (Proteus mirabilis; strain A21222, read-out: MIC): 0.1 µg/mL (≈ 0.244 µM) | MIC (Providencia rettgeri; (GM) of the Providencia rettgeri strains, read-out: Geometric mean of MIC): 0.015 µg/mL (≈ 0.0366 µM) | MIC (Providencia rettgeri; IFO3850, strain IFO 3850 MS-1, read-out: MIC): < 0.0063 µg/mL | MIC (Providencia rettgeri; strain A 9637, read-out: MIC): < 0.0063 µg/mL | MIC (Providencia rettgeri; strain A15167 (first line), read-out: MIC): < 0.0063 µg/mL | MIC (Providencia rettgeri; strain A15167 (second line), read-out: MIC): 0.013 µg/mL (≈ 0.0317 µM) | MIC (Providencia rettgeri; strain A20645, read-out: MIC): 0.4 µg/mL (≈ 0.977 µM) | MIC (Providencia rettgeri; strain A20915, read-out: MIC): 0.8 µg/mL (≈ 1.95 µM) | MIC (Providencia rettgeri; strain A20920, read-out: MIC): < 0.0063 µg/mL | MIC (Providencia rettgeri; strain A20921, read-out: MIC): < 0.0063 µg/mL | MIC (Providencia rettgeri; strain A21205, read-out: MIC): 0.025 µg/mL (≈ 0.0611 µM) | MIC (Providencia rettgeri; strain A21270, read-out: MIC): 0.025 µg/mL (≈ 0.0611 µM) | MIC [1]: 0.35 µg/mL (≈ 0.855 µM) | MIC [2]: 0.066 µg/mL (≈ 0.161 µM) | MIC [3]: 6.3 µg/mL (≈ 15.4 µM)
